Data as given in patent US5612352A, “Heterocyclic compounds” (Zeneca Limited, priority 1992, dated 1997).

Tests used:
Squalene Synthase = biological target: T1, Squalene Synthase (Rattus norvegicus, UniProt Q02769); assay: Inhibition of Squalene Synthase (formation of squalene from tritiated farnesyl pyrophosphate, rat liver microsomal protein); assay type: biochemical; conditions: rat liver microsomes, 20 μM 1-[3H]-farnesyl pyrophosphate, 37° C., 15 minutes; read-out: IC50 (concentration which results in a 50% inhibition of squalene production)
T1 construct: from tissue; host or cells: rat liver microsomes
T1 sequence (Q02769 1-416): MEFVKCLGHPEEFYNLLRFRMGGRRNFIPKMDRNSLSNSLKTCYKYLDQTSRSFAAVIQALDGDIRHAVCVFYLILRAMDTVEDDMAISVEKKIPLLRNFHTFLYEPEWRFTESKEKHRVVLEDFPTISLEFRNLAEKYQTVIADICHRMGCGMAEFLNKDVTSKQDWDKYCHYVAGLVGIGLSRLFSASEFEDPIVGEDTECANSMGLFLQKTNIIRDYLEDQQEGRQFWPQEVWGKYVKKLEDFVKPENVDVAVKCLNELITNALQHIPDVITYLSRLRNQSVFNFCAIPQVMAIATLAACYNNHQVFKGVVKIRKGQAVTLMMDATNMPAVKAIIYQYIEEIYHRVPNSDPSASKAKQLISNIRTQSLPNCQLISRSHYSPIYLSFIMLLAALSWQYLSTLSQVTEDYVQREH
Procedure: (a) Inhibition of Squalene Synthase
In this test, the ability of a compound to prevent the . formation of squalene from a radioactive substrate (tritiated farnesyl pyrophosphate) is assessed.
The test compound is incubated at a concentration of 25 micromolar in 200 μl of a buffered solution containing potassium phosphate (50 mM), MgCl2 (4.95 mM), KF (9.9 mM), NADPH (0.9 mM) and rat liver microsomal protein (20 μg). Rat liver microsomes are prepared by the method described in published European Patent Application No. 324,421 and stored in liquid nitrogen prior to assay. Assay vials are kept at 37° C. throughout the incubation.
The reaction is started with the addition of the substrate (1-[^3 H]-farnesyl pyrophosphate), final concentration 20 μM, and stopped after 15 minutes reaction time with the addition of 50 μl of 4% KOH. The reaction products are separated from unreacted substrate after application to a C-18 octadecyl 1ccBond column (Analytichem Int product No. 617101). An aqueous fraction is eluted with 250 μl of 0.1M KOH. Squalene is then eluted with 1.0 ml 10% ethylacetate in hexane and radioactivity determined. The difference in radioactivity in the presence and absence of the test compound is used to determine the level of inhibition. […] The IC50 can then be determined from a plot of percentage inhibition against concentration of test compound.

[1] = system: de novo hepatic cholesterol synthesis; assay: Acute Rat Cholesterol Synthesis Assay (de novo hepatic cholesterol synthesis from exogenously administered 14C-acetate); assay type: in vivo; conditions: female rats, oral gavage, ip or iv dosing (route not given), [2-14C]-acetate ip 1 hour after dose, blood after a further hour
Procedure: (b) Acute Rat Cholesterol Synthesis Assay
This is an acute in vivo test in the rat to measure de novo hepatic cholesterol synthesis from exogenously administered ^14 C-acetate.
Female rats (35-55 g) are housed in reverse lighting conditions (red light from 0200h-1400h) for a period of about 2 weeks prior to test. Animals are allowed free access to chow and drinking water throughout this period. At test, animals should weigh 125-150 g.
Test compounds may be administered by oral gavage, dissolved or suspended in 0.5% polysorbate, or by ip or iv dosing. Control animals receive vehicle alone. After 1 hour the rats are injected ip with 25 μCi [2-^14 C]-acetate (NEN DUPONT. specific activity, 45-60 mCi/mmol NEC-085H, or AMERSHAM specific activity, 50-60 mCi/mmol CFA 14) in a volume of 0.25 ml saline (100 μCi/ml). After a further hour, rats are terminally anaesthetised with halothane and a blood sample obtained from the abdominal vena cava.
1 ml of plasma is lyophilised and then saponified in 2 ml ethanolic KOH (1 part 33% KOH, 9 parts ethanol) at 75° C. for 2 hours. After addition of an equal quantity of water, non-saponifiable lipids are extracted with two 5 ml volumes of hexane. The hexane extracts are evaporated to dryness and the residues dissolved in ethanol to determine cholesterol specific radioactivity. ED50 values can be determined in the standard way.

SMILES	IC50 (Squalene Synthase) [nM]	ED50 [1] [mg/kg]
OC1C2CCN(CC2)C1Cc1ccc(-c2ccccc2)cc1 (stereo not drawn) [Example 2, 2-(4-biphenylmethyl)-3-quinuclidinol]	120	–
c1ccc(-c2ccc(SC3CN4CCC3CC4)cc2)cc1 (stereo not drawn) [Example 10, 3-(4-biphenylthio)quinuclidine]	21	46
